Biological target: T1, Human Recombinant Matriptase 2 (Homo sapiens, UniProt Q8IU80)
T1 construct: purchased Enzo Life Sciences (an in-house preparation was also used) ALX-201-752-1
T1 sequence (Q8IU80 1-811): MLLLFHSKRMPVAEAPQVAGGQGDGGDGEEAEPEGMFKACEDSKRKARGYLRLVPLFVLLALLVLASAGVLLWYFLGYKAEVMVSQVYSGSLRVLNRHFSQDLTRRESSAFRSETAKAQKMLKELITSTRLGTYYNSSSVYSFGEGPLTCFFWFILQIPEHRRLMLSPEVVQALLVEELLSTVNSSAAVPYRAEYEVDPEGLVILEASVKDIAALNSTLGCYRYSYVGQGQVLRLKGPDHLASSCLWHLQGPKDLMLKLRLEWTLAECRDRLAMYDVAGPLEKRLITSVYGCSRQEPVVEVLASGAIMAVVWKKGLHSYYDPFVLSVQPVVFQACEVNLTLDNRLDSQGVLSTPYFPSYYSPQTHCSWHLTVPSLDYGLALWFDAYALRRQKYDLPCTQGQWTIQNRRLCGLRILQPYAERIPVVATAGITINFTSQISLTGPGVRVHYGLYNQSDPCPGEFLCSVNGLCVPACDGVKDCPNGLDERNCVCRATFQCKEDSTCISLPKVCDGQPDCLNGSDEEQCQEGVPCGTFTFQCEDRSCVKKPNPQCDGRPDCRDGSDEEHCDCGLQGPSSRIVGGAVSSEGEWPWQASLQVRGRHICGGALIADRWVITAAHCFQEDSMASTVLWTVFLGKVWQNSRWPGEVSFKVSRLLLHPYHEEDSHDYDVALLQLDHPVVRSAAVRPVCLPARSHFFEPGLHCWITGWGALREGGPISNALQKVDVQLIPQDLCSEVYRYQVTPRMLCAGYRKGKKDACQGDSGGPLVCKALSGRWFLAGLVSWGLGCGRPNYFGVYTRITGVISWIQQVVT
Experiment: Matriptase 2 fluorescence based inhibition assay, Method B (50 mM TRIS pH 7.5, 150 mM NaCl, 0.01% gelatin)
Type: biochemical
Settings: 1 uM compound; Assay Used = B
Experimental: Test compounds were evaluated for their potential to inhibit Human Recombinant Matriptase 2 (in-house and commercial protein from Enzo Life Sciences—cat log -ALX-201-752-1) using fluorescence based assay. The concentration of Recombinant Matriptase 2 and the substrate used in the assay was: 7 nM (commercial) and 15 nM (Inhouse Matriptase 2) and 100 μM (Boc-Gln-Ala-Arg-7-amido-4-methyl coumarin hydrobromide—Cat log: B4153-Sigma and I-1550 from Bachem) respectively. The assay buffer used was 50 mM TRIS pH 7.5, 150 mM NaCl, 0.01% gelatin (G1393 Sigma). The assay was performed using 384 well black flat bottom plate from grenier (Cat log: 781076) at 25° C. The enzyme and compound preincubated for 30 mins, plate was read 60 mins after substrate addition at wavelength Ex: 360/Em:480 nm. The final assay volume of was 20 μl. Stock solution of compounds were initially prepared in DMSO and appropriate dilutions were made for screening and IC50 determination (final DMSO conc in the assay was 1%). All the measurements were carried out using the Spectramax M5, Molecular devices. The compounds were screened at 1 and 10 μM concentration and IC50 was determined for the interested compounds.
To determine IC50 values, dose response curves were generated by plotting percentage inhibition as a function of inhibitor concentration and the data was fitted to sigmoidal non-linear regression equation (variable slope) using Graph Pad prism software V7.

| Mar-2 % inhibition at 1 uM | SMILES |
| --- | --- |
| B (B represents 25%≤I≤50%) | CN(C)C(=O)c1cc2ccc(C(=N)N)cc2n1Cc1cccc2ccccc12 [Compound I-482] |

Same assay, conditions: 1 uM compound; Assay Used = B (Method B)

| Mar-2 % inhibition at 1 uM | SMILES |
| --- | --- |
| A (A represents 0%≤I≤25%) | N#Cc1c(C(=O)N[C@H]2CC[C@H](N)CC2)n(Cc2cccc3ccccc23)c2cc(C(=N)N)ccc12 [Compound I-657] |

Same assay, conditions: 1 uM compound; Assay Used = B (Method B); read-out: Mar-2 % inhibition at 1 uM

| inhibition at 1 µM | SMILES |
| --- | --- |
| 50 to 75% | NCc1ccc2cc(C(=O)N[C@H]3CC[C@H](N)CC3)n(Cc3cc(Oc4ccccc4)cc4ccccc34)c2c1 [Compound I-635] |
| 75 to 100% | N=C(N)c1ccc2cc(C(=O)N[C@H]3CC[C@H](N)CC3)n(Cc3cc(OCCc4ccccc4)cc4ccccc34)c2c1 [Compound I-737] |
| 0 to 25% | N=C(N)c1ccc2cc(C(=O)N[C@H]3CC[C@H](N)CC3)n(Cc3cc(Oc4ccc(-c5ccccc5)cc4)cc4ccccc34)c2c1 [Compound I-715] |
| 75 to 100% | CC(C)COC(=O)c1cc(Cn2c(C(=O)N[C@H]3CC[C@H](N)CC3)cc3ccc(C(=N)N)cc32)c2ccccc2c1 [Compound I-780] |
| 50 to 75% | N=C(N)c1ccc2cc(C(=O)N[C@H]3CC[C@H](N)CC3)n(Cc3cc(C(N)=O)cc4ccccc34)c2c1 [Compound I-796, N-((1r, 4r)-4-aminocyclohexyl)-6-carbamimidoyl-1-((3-carbamoylnaphthalen-1-yl)methyl)-1H-indole-2-carboxamide] |
| 50 to 75% | CC(=O)N[C@H]1CC[C@H](NC(=O)c2cc3ccc(C(=N)N)cc3n2Cc2cccc3ccccc23)CC1 [Compound I-754] |
| 50 to 75% | N=C(N)c1ccc2cc(C(=O)O)n(Cc3cc(Oc4ccsc4)cc4ccccc34)c2c1 [Compound I-655] |
| 0 to 25% | N=C(N)c1ccc2cc(C(=O)Nc3cccc4c3OCCO4)n(Cc3cccc4ccccc34)c2c1 [Compound I-760] |
| 0 to 25% | N=C(N)c1ccc2cc(C(=O)OCCN)n(Cc3cccc4ccccc34)c2c1 [Compound I-745] |
| 50 to 75% | COC(=O)c1cc2ccc(C(=N)N)cc2n1Cc1cc(O)cc2ccccc12 [Compound I-696] |
| 50 to 75% | N=C(N)c1ccc2cc(C(=O)O)n(Cc3cccc4c(Oc5ccccc5)cccc34)c2c1 [Compound I-730] |
| 50 to 75% | COc1cccc(Oc2cc(Cn3c(C(=O)O)cc4ccc(C(=N)N)cc43)c3ccccc3c2)c1 [Compound I-686] |
| 50 to 75% | N=C(N)c1ccc2cc(C(=O)N[C@H]3CC[C@H](N)CC3)n(Cc3c(Cl)c(Sc4ccccc4)cc4ccccc34)c2c1 [Compound I-652] |
| 0 to 25% | N=C(N)c1cnc2cc(C(=O)O)n(Cc3cccc4ccccc34)c2c1 [Compound I-713] |
| 75 to 100% | N#Cc1ccc(Cn2c(C(=O)N[C@H]3CC[C@H](N)CC3)cc3ccc(C(=N)N)cc32)c2ccccc12 [Compound I-691] |
| 50 to 75% | COc1ccccc1Oc1cc(Cn2c(C(=O)N[C@H]3CC[C@H](N)CC3)cc3ccc(C(=N)N)cc32)c2ccccc2c1 [Compound I-700] |
| 75 to 100% | CS(=O)(=O)N[C@H]1CC[C@@H](NC(=O)c2cc3ccc(C(=N)N)cc3n2Cc2cccc3ccccc23)CC1 [Compound I-728] |
| 0 to 25% | CCOC(=O)c1cc2ccc(C(=N)NC(=O)OCC(C)C)cc2n1Cc1cc(Oc2ccccc2)cc2ccccc12 [Compound I-627] |

Same assay, conditions: 1 uM compound; Assay Used = B; read-out: Mar-2 % inhibition at 1 uM

| inhibition at 1 µM | SMILES |
| --- | --- |
| 75 to 100% | N=C(N)c1ccc2cc(C(=O)NCC3CCNCC3)n(Cc3cccc4ccccc34)c2c1 [Compound I-497, 6-carbamimidoyl-1-(naphthalen-1-ylmethyl)-N-(piperidin-4-ylmethyl)-1H-indole-2-carboxamide] |
| 0 to 25% | CC(C)(C)OC(=O)N[C@H]1CC[C@H](NC(=O)c2cc3ccc(C(=N)N)cc3n2-c2ccc3ccccc3c2)CC1 [Compound I-416] |
| 75 to 100% | CCOC(=O)N1CCC(NC(=O)c2cc3ccc(C(=N)N)cc3n2Cc2cccc3ccccc23)CC1 [Compound I-434] |
| 25 to 50% | CC(C)(C)OC(=O)NC(=N)c1ccc2cc(C(=O)N[C@H]3CC[C@H](O)CC3)n(Cc3cccc4ccccc34)c2c1 [Compound I-422] |
| 75 to 100% | CN(C)[C@H]1CC[C@H](NC(=O)c2cc3ccc(C(=N)N)cc3n2Cc2cccc3ccccc23)CC1 [Compound I-469] |
| 0 to 25% | NC(=O)c1ccc2cc(C(=O)NC3CCNCC3)n(Cc3cccc4ccccc34)c2c1 [Compound I-455, 1-(naphthalen-1-ylmethyl)-N2-(piperidin-4-yl)-1H-indole-2,6-dicarboxamide] |
| 75 to 100% | CN1CC[C@@H](NC(=O)c2cc3ccc(C(=N)N)cc3n2Cc2cccc3ccccc23)C1 [Compound I-450] |
| 0 to 25% | N=C(N)c1ccc2cc(C(=O)NCC3CCNCC3)[nH]c2c1 [Compound I-496, 6-carbamimidoyl-N-(piperidin-4-ylmethyl)-1H-indole-2-carboxamide] |
| 0 to 25% | COC(=O)NCCOC(=O)c1cc2ccc(C(=N)NC(=O)OCC(C)C)cc2n1Cc1cc(Oc2ncccn2)cc2ccccc12 [Compound I-550] |
| 50 to 75% | N=C(N)c1ccc2cc(C(=O)Nc3nnn[nH]3)n(Cc3cc(Oc4ncccn4)cc4ccccc34)c2c1 [Compound I-572] |
| 25 to 50% | COC(=O)NC(=N)c1ccc2cc(C(=O)O)n(Cc3cc(Oc4ncccn4)cc4ccccc34)c2c1 [Compound I-561] |
| 50 to 75% | N=C(N)c1ccc2cc(C(=O)NC3CCNC(=O)C3)n(Cc3cc(Oc4ncccn4)cc4ccccc34)c2c1 (racemic) [Compound I-560] |
| 25 to 50% | N=C(N)c1ccc2cc(C(=O)OCc3ccccc3)n(Cc3cc(Oc4ncccn4)cc4ccccc34)c2c1 [Compound I-596] |
| 75 to 100% | N=C(N)c1ccc2cc(C(=O)NCCN)n(Cc3cccc4ccccc34)c2c1 [Compound I-465] |
| 0 to 25% | CN(C)C(=O)Sc1cc(Cn2c(C(=O)O)cc3ccc(C(=N)N)cc32)c2ccccc2c1 [Compound I-575] |
| 25 to 50% | N=C(N)c1ccc2cc(C(=O)N[C@H]3CC[C@H](N)CC3)n(Cc3ccc(C(=O)O)c4ccccc34)c2c1 [Compound I-508] |
| 0 to 25% | CC(C)(C)OC(=O)NC(=N)c1ccc2cc(C(=O)N3CCCN(C(=O)OC(C)(C)C)CC3)n(Cc3cccc4ccccc34)c2c1 [Compound I-423] |
| 50 to 75% | N=C(N)c1ccc2cc(C(=O)N[C@H]3CC[C@H](N)CC3)n(Cc3ccnc4ccccc34)c2c1 [Compound I-499] |
| 25 to 50% | N=C(N)c1ccc2cc(C(=O)N[C@H]3CC[C@H](N)CC3)n(CCc3cccc4ccccc34)c2c1 [Compound I-409] |

Same assay, conditions: compound at 1 uM; Assay Used: B; read-out: Mar-2 % inhibition at 1 uM

| inhibition at 1 µM | SMILES |
| --- | --- |
| 50 to 75% | COC(=O)c1cc2c(Cn3c(C(=O)N[C@H]4CC[C@H](N)CC4)cc4ccc(C(=N)N)cc43)cccc2s1 [Compound I-822] |
| 75 to 100% | N=C(N)c1ccc2cc(-c3nnn[nH]3)n(Cc3cccc4ccccc34)c2c1 [Compound I-803, 1-(naphthalen-1-ylmethyl)-2-(1H-tetrazol-5-yl)-1H-indole-6-carboximidamide] |
| 75 to 100% | N=C(N)c1ccc2cc(C(=O)N[C@H]3CC[C@H](N)CC3)n(Cc3cc(Br)cc4ccccc34)c2c1 [Compound I-819] |
| 0 to 25% | C[C@@H](c1cccc2ccccc12)n1c(C(=O)N[C@H]2CC[C@H](N)CC2)cc2ccc(/C(N)=N/O)cc21 [Compound I-802] |

Same assay, conditions: read-out: Mar-2 % inhibition at 1 uM

| SMILES | inhibition at 1 µM |
| --- | --- |
| N=C(NC(=O)Oc1ccccc1)c1ccc2cc(C(=O)OCc3ccccc3)n(Cc3cc(Oc4ncccn4)cc4ccccc34)c2c1 [Compound I-576] | 0 to 25% |

Reference: patent US12428415B2, “Matriptase 2 inhibitors and uses thereof” (Disc Medicine, Inc., priority 2018, dated 2025)
